Target: T1, Axl (Homo sapiens, UniProt P30530)
T1 sequence (P30530 26-894): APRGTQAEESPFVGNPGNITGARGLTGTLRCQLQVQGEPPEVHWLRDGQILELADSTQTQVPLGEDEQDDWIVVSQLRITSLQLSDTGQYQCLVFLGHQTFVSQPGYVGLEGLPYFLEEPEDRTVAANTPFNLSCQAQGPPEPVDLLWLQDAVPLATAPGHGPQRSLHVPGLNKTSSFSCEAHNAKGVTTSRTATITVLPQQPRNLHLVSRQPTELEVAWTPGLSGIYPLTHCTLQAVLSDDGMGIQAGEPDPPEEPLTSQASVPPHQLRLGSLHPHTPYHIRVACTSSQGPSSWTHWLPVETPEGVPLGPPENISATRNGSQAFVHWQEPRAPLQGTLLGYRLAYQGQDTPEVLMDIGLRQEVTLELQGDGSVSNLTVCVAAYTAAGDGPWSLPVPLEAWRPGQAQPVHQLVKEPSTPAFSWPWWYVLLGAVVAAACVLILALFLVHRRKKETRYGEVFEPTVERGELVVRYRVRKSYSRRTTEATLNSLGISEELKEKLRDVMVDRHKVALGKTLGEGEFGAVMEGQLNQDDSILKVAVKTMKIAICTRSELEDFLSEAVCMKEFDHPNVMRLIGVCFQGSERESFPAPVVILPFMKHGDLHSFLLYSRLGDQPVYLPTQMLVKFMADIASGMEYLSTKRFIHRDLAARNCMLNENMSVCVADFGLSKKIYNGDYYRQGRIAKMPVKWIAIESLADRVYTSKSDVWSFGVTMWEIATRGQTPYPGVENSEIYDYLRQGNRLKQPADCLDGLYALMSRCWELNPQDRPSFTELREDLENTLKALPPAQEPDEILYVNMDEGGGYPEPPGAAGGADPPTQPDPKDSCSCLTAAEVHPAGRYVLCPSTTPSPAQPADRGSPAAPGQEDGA
Experiment: HTRF KinEASE-TK biochemical potency, AXL
Parameters: purchased Invitrogen
Details: 5 nM AXL, 700 μM ATP
In short: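 Enzyme preincubated with compound 1 h at RT; final 5 nM AXL or 1 nM TYRO3/MER, 800 nM TK substrate-biotin, 700 μM ATP, HEPES pH 7.4, MgCl2, 1% DMSO, 2 h at RT. HTRF 665/620 ratio read after streptavidin-XL665/cryptate antibody detection; percent activity relative to DMSO and pre-stopped controls.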

IC50 | SMILES
< 0.1 µM | O=C1NCCOc2cc(-c3n[nH]c4ncc(-c5ccc6c(c5)CCC(N5CCC5)CC6)cc34)ccc21 (centres unmarked) [Example 52, 8-(5-(7-(Azetidin-1-yl)-6,7,8,9-tetrahydro-5H-benzo[7]annulen-2-yl)-1H-pyrazolo[3,4-b]pyridin-3-yl)-3,4-dihydrobenzo[f][1,4]oxazepin-5(2H)-one]
< 0.1 µM | O=C1NCCOc2cc(-c3n[nH]c4ncc(-c5ccc6c(c5)CCNCC6)cc34)ccc21 [Example 53, 8-(5-(2,3,4,5-Tetrahydro-1H-benzo[d]azepin-7-yl)-1H-pyrazolo[3,4-b]pyridin-3-yl)-3,4-dihydrobenzo[f][1,4]oxazepin-5(2H)-one]
< 0.1 µM | O=C1NCCOc2cc(-c3n[nH]c4ncc(-c5ccc6c(c5)CCNC6)cc34)ccc21 [Example 54, 8-(5-(1,2,3,4-Tetrahydroisoquinolin-6-yl)-1H-pyrazolo[3,4-b]pyridin-3-yl)-3,4-dihydrobenzo[f][1,4]oxazepin-5(2H)-one]
< 0.1 µM | O=C1NCCOc2cc(-c3n[nH]c4ncc(-c5ccc6c(c5)CNCC6)cc34)ccc21 [Example 55, 8-(5-(1,2,3,4-Tetrahydroisoquinolin-7-yl)-1H-pyrazolo[3,4-b]pyridin-3-yl)-3,4-dihydrobenzo[f][1,4]oxazepin-5(2H)-one]
< 0.1 µM | C[C@@H]1CCCN1C1CCc2cc(F)c(-c3cnc4[nH]nc(-c5ccc6c(c5)OCCNC6=O)c4c3)cc2CC1 (stereo partly drawn) [Example 58, 8-(5-{3-Fluoro-7-[(2R)-2-methylpyrrolidin-1-yl]-6,7,8,9-tetrahydro-5H-benzo[7]annulen-2-yl}-1H-pyrazolo[3,4-b]pyridin-3-yl)-2,3,4,5-tetrahydro-1,4-benzoxazepin-5-one]
< 0.1 µM | C[C@@H]1CNC(=O)c2ccc(-c3n[nH]c4ncc(-c5ccc6c(c5)CCC(N5CCC[C@H]5C)CC6)cc34)cc2O1 (stereo partly drawn) [Example 59, (2R)-2-Methyl-8-(5-{7-[(2R)-2-methylpyrrolidin-1-yl]-6,7,8,9-tetrahydro-5H-benzo[7]annulen-2-yl}-1H-pyrazolo[3,4-b]pyridin-3-yl)-2,3,4,5-tetrahydro-1,4-benzoxazepin-5-one]
< 0.1 µM | C[C@@H]1CCCN1C1CCc2ccc(-c3cnc4[nH]nc(-c5ccc6c(c5F)OCCNC6=O)c4c3)cc2CC1 (stereo partly drawn) [Example 60, 9-Fluoro-8-(5-{7-[(2R)-2-methylpyrrolidin-1-yl]-6,7,8,9-tetrahydro-5H-benzo[7]annulen-2-yl}-1H-pyrazolo[3,4-b]pyridin-3-yl)-2,3,4,5-tetrahydro-1,4-benzoxazepin-5-one]
< 0.1 µM | C[C@@H]1CCCN1C1CCc2ccc(-c3cnc4[nH]nc(-c5cc6c(cc5F)C(=O)NCCO6)c4c3)cc2CC1 (stereo partly drawn) [Example 61, 7-Fluoro-8-(5-{7-[(2R)-2-methylpyrrolidin-1-yl]-6,7,8,9-tetrahydro-5H-benzo[7]annulen-2-yl}-1H-pyrazolo[3,4-b]pyridin-3-yl)-2,3,4,5-tetrahydro-1,4-benzoxazepin-5-one]
< 0.1 µM | C[C@@H]1CCCN1C1CCc2ccc(-c3cnc4[nH]nc(-c5ccc6c(c5)O[C@@H](C)CNC6=O)c4c3)cc2CC1 (stereo partly drawn) [Example 62, (2S)-2-Methyl-8-(5-{7-[(2R)-2-methylpyrrolidin-1-yl]-6,7,8,9-tetrahydro-5H-benzo[7]annulen-2-yl}-1H-pyrazolo[3,4-b]pyridin-3-yl)-2,3,4,5-tetrahydro-1,4-benzoxazepin-5-one]
< 0.1 µM | O=C1NCCOc2cc(-c3n[nH]c4ncc(-c5ccc6c(n5)CCC(N5CCCC5)CC6)cc34)ccc21 (centres unmarked) [Example 63, 8-{5-[7-(Pyrrolidin-1-yl)-5H,6H,7H,8H,9H-cyclohepta[b]pyridin-2-yl]-1H-pyrazolo[3,4-b]pyridin-3-yl}-2,3,4,5-tetrahydro-1,4-benzoxazepin-5-one]
< 0.1 µM | Cc1cc2c(cc1-c1cnc3[nH]nc(-c4ccc5c(c4)OCCNC5=O)c3c1)CCC(N1CCC[C@H]1C)CC2 (stereo partly drawn) [Example 64, 8-(5-{3-Methyl-7-[(2R)-2-methylpyrrolidin-1-yl]-6,7,8,9-tetrahydro-5H-benzo[7]annulen-2-yl}-1H-pyrazolo[3,4-b]pyridin-3-yl)-2,3,4,5-tetrahydro-1,4-benzoxazepin-5-one]
< 0.1 µM | C[C@@H]1CCCN1C1CCc2cc(-c3cnc4[nH]nc(-c5ccc6c(c5)OCCNC6=O)c4c3)cc(Cl)c2CC1 (stereo partly drawn) [Example 65, 8-(5-{4-Chloro-7-[(2R)-2-methylpyrrolidin-1-yl]-6,7,8,9-tetrahydro-5H-benzo[7]annulen-2-yl}-1H-pyrazolo[3,4-b]pyridin-3-yl)-2,3,4,5-tetrahydro-1,4-benzoxazepin-5-one]

Further lines, the compound ahead of its results:

SMILES | IC50
Cc1c(-c2n[nH]c3ncc(-c4ccc5c(c4)CCC(N4CCC[C@H]4C)CC5)cc23)ccc2c1OCCNC2=O (stereo partly drawn) [Example 41, 9-Methyl-8-(5-{7-[(2R)-2-methylpyrrolidin-1-yl]-6,7,8,9-tetrahydro-5H-benzo[7]annulen-2-yl}-1H-pyrazolo[3,4-b]pyridin-3-yl)-2,3,4,5-tetrahydro-1,4-benzoxazepin-5-one] | < 0.1 µM
O=C1NCCOc2cc(-c3n[nH]c4ncc(-c5ccc6c(c5)CCC(NC5CCCC5)CC6)cc34)ccc21 (centres unmarked) [Example 42, 8-{5-[7-(Cyclopentylamino)-6,7,8,9-tetrahydro-5H-benzo[7]annulen-2-yl]-1H-pyrazolo[3,4-b]pyridin-3-yl}-2,3,4,5-tetrahydro-1,4-benzoxazepin-5-one] | < 0.1 µM
C[C@H]1CCCN1C1CCc2ccc(-c3cnc4[nH]nc(-c5ccc6c(c5)OCCNC6=O)c4c3)cc2CC1 (stereo partly drawn) [Example 43, 8-(5-{7-[(2S)-2-Methylpyrrolidin-1-yl]-6,7,8,9-tetrahydro-5H-benzo[7]annulen-2-yl}-1H-pyrazolo[3,4-b]pyridin-3-yl)-2,3,4,5-tetrahydro-1,4-benzoxazepin-5-one] | < 0.1 µM
C[C@@H]1CCCN1C1CCc2ccc(-c3cnc4[nH]nc(-c5ccc6c(c5)OCCNC6=O)c4c3)cc2CC1 (stereo partly drawn) [Example 44, 8-(5-{7-[(2R)-2-Methylpyrrolidin-1-yl]-6,7,8,9-tetrahydro-5H-benzo[7]annulen-2-yl}-1H-pyrazolo[3,4-b]pyridin-3-yl)-2,3,4,5-tetrahydro-1,4-benzoxazepin-5-one] | < 0.1 µM
O=C1NCCOc2cc(-c3n[nH]c4ncc(-c5ccc6c(c5)CCC(N[C@H]5CCOC5)CC6)cc34)ccc21 (stereo partly drawn) [Example 45, 8-[5-(7-{[(3S)—Oxolan-3-yl]amino}-6,7,8,9-tetrahydro-5H-benzo[7]annulen-2-yl)-1H-pyrazolo[3,4-b]pyridin-3-yl]-2,3,4,5-tetrahydro-1,4-benzoxazepin-5-one] | < 0.1 µM
O=C1NCCOc2cc(-c3n[nH]c4ncc(-c5ccc6c(c5)CCC(N[C@@H]5CCOC5)CC6)cc34)ccc21 (stereo partly drawn) [Example 46, 8-[5-(7-{[(3R)—Oxolan-3-yl]amino}-6,7,8,9-tetrahydro-5H-benzo[7]annulen-2-yl)-1H-pyrazolo[3,4-b]pyridin-3-yl]-2,3,4,5-tetrahydro-1,4-benzoxazepin-5-one] | < 0.1 µM
O=C1NCCOc2cc(-c3n[nH]c4ncc(-c5ccc6c(c5)CCC(N5CCOCC5)CC6)cc34)ccc21 (centres unmarked) [Example 47, 8-{5-[7-(Morpholin-4-yl)-6,7,8,9-tetrahydro-5H-benzo[7]annulen-2-yl]-1H-pyrazolo[3,4-b]pyridin-3-yl}-2,3,4,5-tetrahydro-1,4-benzoxazepin-5-one] | < 0.1 µM
O=C1NCCOc2cc(-c3n[nH]c4ncc(-c5ccc6c(c5)CCC(N5CCNCC5)CC6)cc34)ccc21 (centres unmarked) [Example 48, 8-{5-[7-(Piperazin-1-yl)-6,7,8,9-tetrahydro-5H-benzo[7]annulen-2-yl]-1H-pyrazolo[3,4-b]pyridin-3-yl}-2,3,4,5-tetrahydro-1,4-benzoxazepin-5-one] | < 0.1 µM
O=C1NCCOc2cc(-c3n[nH]c4ncc(-c5ccc6c(c5)CCC(N5CCC[C@@H]5CO)CC6)cc34)ccc21 (stereo partly drawn) [Example 49, 8-(5-{7-[(2R)-2-(Hydroxymethyl)pyrrolidin-1-yl]-6,7,8,9-tetrahydro-5H-benzo[7]annulen-2-yl}-1H-pyrazolo[3,4-b]pyridin-3-yl)-2,3,4,5-tetrahydro-1,4-benzoxazepin-5-one] | < 0.1 µM
O=C1NCCOc2cc(-c3n[nH]c4ncc(-c5ccc6c(c5)CCC(N5CCC[C@H]5CO)CC6)cc34)ccc21 (stereo partly drawn) [Example 50, 8-(5-{7-[(2S)-2-(Hydroxymethyl)pyrrolidin-1-yl]-6,7,8,9-tetrahydro-5H-benzo[7]annulen-2-yl}-1H-pyrazolo[3,4-b]pyridin-3-yl)-2,3,4,5-tetrahydro-1,4-benzoxazepin-5-one] | < 0.1 µM
O=C1NCCOc2cc(-c3n[nH]c4ncc(-c5ccc6c(c5)CCC(N5CC[C@@H](O)C5)CC6)cc34)ccc21 (stereo partly drawn) [Example 51, 8-(5-(7-((R)-3-Hydroxypyrrolidin-1-yl)-6,7,8,9-tetrahydro-5H-benzo[7]annulen-2-yl)-1H-pyrazolo[3,4-b]pyridin-3-yl)-3,4-dihydrobenzo[f][1,4]oxazepin-5(2H)-one] | < 0.1 µM

From patent US20240226115A1, “AXL INHIBITOR COMPOUNDS” (ARCUS BIOSCIENCES, INC., priority 2021, published 2024)
